# Data: patent US20240327359A1, “3-ISOXAZOLIDINONE COMPOUND, PREPARATION METHOD, HERBICIDAL COMPOSITION AND APPLICATION THEREOF” (QINGDAO KINGAGROOT CHEMICAL COMPOUND CO., LTD., priority 2021, published 2024)
# Read-outs that look alike come from different tables or passages of the source.
# Tests used:
# Echinochloa crusgalli = test: Activity test of the compositions, post-emergence treatment by foliage spray; assay type: in vivo; conditions: foliage (F)
# Procedure: (§1) The desired active ingredient B was purchased from a reagent company or synthesized by a known method. The technical materials were all dissolved in acetone and diluted with an aqueous solution containing 0.10% emulsifier Tween-80 which were to be used immediately after dilution.
# Weeds were cultivated by a pot culture method. […] Weed seeds with plump and uniform grains were selected, soaked in lukewarm water at 25° C. for 6 hours, and germinated in a 28° C. biochemical incubator (in darkness). The weed seeds that had just germinated were evenly placed on the surface of the soil and then covered with 0.5-1 cm soil according to the sizes of seeds.
# The culture was carried out in a controllable sunlight greenhouse at 20 to 30° C., in natural light, and with relative humidity of 57% to 72%.
# (§2) Each treatment was repeated 4 times. Four pots with 20 weed seeds per pot were treated each time.
# The agents were used for only once in total in the experiment. In the stage of 1.5-2 leaves, the weeds were thinned out to maintain 10 weeds per pot. Ten weeds were kept in each treatment, then continued to be cultured until Echinochloa crus-galli var. zelayensis reached the stage of 2-3 leaves, Cirsium setosum reached the stage of 5-6 leaves, Galium aparine reached the stage of 3-4 whorl leaves, Amaranthus retroflexus reached the stage of 3-5 leaves, Echinochloa crusgalli, Lolium multiflorum and Digitaria sanguinalis reached the stage of 3 leaves with one leaf not fully expanding for further treatment.
# (§3) The well-cultured test materials were evenly placed on a platform with an area of 0.5 m^2, and solution of agents was sprayed on the stems and leaves thereof by the 3WP-2000-type walking spray tower at a dosage of 450 kg/ha and at a spray pressure of 0.3 MPa. After all the solution was sprayed, the valve was closed. After 30 seconds, the door of the spray tower was opened, and the nutritional bowl was taken out. Then the valve was opened, and the spray tube was cleaned by spraying 50 ml of water. After the treatment, the weeds were routinely cultured in a greenhouse.
# (§4) A method for investigating absolute numbers was employed. Whole seedlings of survival weeds were cut off with a blade along the soil surface, and the fresh weight of the weeds was weighed with an analytical balance. For dead weeds, the fresh weight thereof was zero.
# (§5) The investigation was performed 21 days after the treatment for only once in total.
# weeds = test: Activity test of the compositions, soil sealing treatment; assay type: in vivo
# Procedure: as §1
# Weeds are cultivated in a controllable sunlight greenhouse at 20 to 30° C., in natural light, and with relative humidity of 57% to 72%. […] The test soil was filled quantitatively to ¾ of the pots and then watered from the bottom of the pots to completely wet the soil to saturation. The test weed seeds were accelerated to just germinate, and then evenly and quantitatively sowed on the surface, then covered with 0.5-1 cm soil according to the seed size, and ready for use 72 hours after sowing.
# as §2
# as §3, with “well-sowed” for “well-cultured”, “soil” for “stems and leaves thereof”, “water.” for “water. After the treatment, the weeds were routinely cultured in a greenhouse.”
# as §4, §5
# [1] = Echinochloa crus-galli, soil, read-out: Control effect (%) of B applied alone (B)
# [2] = Echinochloa crusgalli, soil (S), B 0.5 g a.i./mu
# [3] = Echinochloa crusgalli, soil (S), B 1 g a.i./mu
# [4] = Echinochloa crus-galli, Echinochloa crusgalli, soil (S), B 4 g a.i./mu, read-out: Control effect (%) of B applied alone (B)
# [5] = Echinochloa crus-galli, Echinochloa crusgalli, soil (S), B 8 g a.i./mu, read-out: Control effect (%) of B applied alone (B)
# [6] = Lolium multiflorum, soil (S), B 16 g a.i./mu, read-out: Control effect (%) of B applied alone (B)
# [7] = Echinochloa crusgalli, soil (S), B 0.6 g a.i./mu
# [8] = Echinochloa crusgalli, soil (S), B 1.2 g a.i./mu
# [9] = Potamogeton distinctus, soil, read-out: Control effect (%) of B applied alone (B)
# [10] = Echinochloa crusgalli, soil treatment (S), B at 2 g a.i./mu, 21 days
compound,measurement,setting,value
CCC[S@@+]([O-])c1c(C(F)(F)F)ccc(C(=O)Nc2nnc(C)o2)c1F,Control effect (%) of B applied alone (B),Echinochloa crusgalli; B 1.5 g a.i./mu,33.8%
same,Control effect (%) of B applied alone (B),Echinochloa crusgalli; B 3 g a.i./mu,49.7%
CC(C)c1nn(C(=O)NC(C)(C)C)c(=O)n1N [amicarbazone],Control effect (%) of B applied alone (B),Echinochloa crusgalli; B 4 g a.i./mu,29.8%
same,Control effect (%) of B applied alone (B),Echinochloa crusgalli; B 8 g a.i./mu,37.2%
COc1cc(OC)nc(Oc2cccc(Oc3nc(OC)cc(OC)n3)c2C(=O)O)n1 [bispyribac],Control effect (%) of B applied alone (B),Echinochloa crusgalli; B 0.6 g a.i./mu,30.7%
same,Control effect (%) of B applied alone (B),Echinochloa crusgalli; B 1.2 g a.i./mu,42. %
CCn1ncc(C(=O)c2ccc(S(C)(=O)=O)c(COCC(F)(F)F)c2Cl)c1OC(=O)c1cn(C)nc1C [fenpyrazone],Control effect (%) of B applied alone (B),Echinochloa crusgalli; B 1.5 g a.i./mu,32.6%
same,Control effect (%) of B applied alone (B),Echinochloa crusgalli; B 3 g a.i./mu,50.7%
COc1c(Cl)ccc(-c2nc(C(=O)O)c(Cl)c(N)c2F)c1F [florpyrauxifen],Control effect (%) of B applied alone (B),Echinochloa crusgalli; B 0.5 g a.i./mu,22.5%
same,Control effect (%) of B applied alone (B),Echinochloa crusgalli; B 1 g a.i./mu,41.3%
CSc1nnc(C(C)(C)C)c(=O)n1N [metribuzin],pest or weed control at 75 g/ha,"weeds; Amaranthus retroflexus, soil (S), B 5 g a.i./mu, read-out: Control effect (%) of B applied alone (B)",40.5%
same,pest or weed control at 150 g/ha,"weeds; Amaranthus retroflexus, soil (S), B 10 g a.i./mu, read-out: Control effect (%) of B applied alone (B)",56.2%
CCSC(=O)N1CCCCCC1 [molinate],pest or weed control at 300 g/ha,"weeds; Echinochloa crus-galli, Echinochloa crusgalli, soil (S), B 20 g a.i./mu, read-out: Control effect (%) of B applied alone (B)",39.6%
same,pest or weed control at 600 g/ha,"weeds; Echinochloa crus-galli, Echinochloa crusgalli, soil (S), B 40 g a.i./mu, read-out: Control effect (%) of B applied alone (B)",51.7%
CCN(CC)C(=O)C(C)Oc1cccc2ccccc12 (stereo not shown) [napropamide],pest or weed control at 120 g/ha,weeds; [1],30.1%
same,pest or weed control at 240 g/ha,weeds; [1],42.3%
C#CCOc1cc(-n2nc(C(C)(C)C)oc2=O)c(Cl)cc1Cl [oxadiargy1],Control effect (%) of B applied alone (B),weeds; [2],36.2%
same,Control effect (%) of B applied alone (B),weeds; [3],47.9%
CC(C)Oc1cc(-n2nc(C(C)(C)C)oc2=O)c(Cl)cc1Cl [oxadiazon],pest or weed control at 60 g/ha,weeds; [4],37.2%
same,pest or weed control at 120 g/ha,weeds; [5],51.9%
CC1=C(c2ccccc2)C(=O)N(C(C)(C)c2cc(Cl)cc(Cl)c2)CO1 [oxaziclomefone],pest or weed control at 7.5 g/ha,"weeds; Echinochloa crus-galli, 504 h, Echinochloa crusgalli, soil treatment (S), B at 0.5 g a.i./mu, 21 days, read-out: Control effect (%) of B applied alone (B)",33.7%
same,pest or weed control at 15 g/ha,"weeds; Echinochloa crus-galli, 504 h, Echinochloa crusgalli, soil treatment (S), B at 1 g a.i./mu, 21 days, read-out: Control effect (%) of B applied alone (B)",51.2%
CCOc1cc(Oc2ccc(C(F)(F)F)cc2Cl)ccc1[N+](=O)[O-] [oxyfluorfen],pest or weed control at 15 g/ha,"weeds; Digitaria sanguinalis, soil (S), B 1 g a.i./mu, read-out: Control effect (%) of B applied alone (B)",28.6%
same,pest or weed control at 30 g/ha,"weeds; Digitaria sanguinalis, soil (S), B 2 g a.i./mu, read-out: Control effect (%) of B applied alone (B)",39.5%
CCC(CC)Nc1c([N+](=O)[O-])cc(C)c(C)c1[N+](=O)[O-] [pendimethalin],pest or weed control at 240 g/ha,weeds; [6],23.6%
same,pest or weed control at 480 g/ha,"weeds; Lolium multiflorum, soil (S), B 32 g a.i./mu, read-out: Control effect (%) of B applied alone (B)",42.7%
CC(C)=C1OC(=O)N(c2cc(OC3CCCC3)c(Cl)cc2F)C1=O [pentoxazone],pest or weed control at 30 g/ha,weeds; [1],40.1%
same,pest or weed control at 60 g/ha,weeds; [1],57.3%
O=C(Nc1ccc(F)cc1)c1cccc(Oc2cccc(C(F)(F)F)c2)n1 [picolinafen],Control effect (%) of B applied alone (B),"weeds; Galium aparine, soil (S), B 0.5 g a.i./mu",40.8%
same,Control effect (%) of B applied alone (B),"weeds; Galium aparine, soil (S), B 1 g a.i./mu",55.7%
CCCOCCN(C(=O)CCl)c1c(CC)cccc1CC [pretilachlor],pest or weed control at 120 g/ha,"weeds; Lolium multiflorum, soil (S), B 8 g a.i./mu, read-out: Control effect (%) of B applied alone (B)",23.4%
same,pest or weed control at 240 g/ha,weeds; [6],50.9%
CSc1nc(NC(C)C)nc(NC(C)C)n1 [prometryne],pest or weed control at 90 g/ha,"weeds; Commelina communis, soil (S), B 6 g a.i./mu, read-out: Control effect (%) of B applied alone (B)",30.5%
same,pest or weed control at 180 g/ha,"weeds; Commelina communis, soil (S), B 12 g a.i./mu, read-out: Control effect (%) of B applied alone (B)",41.7%
CCCc1ccc2nc(Cl)c(S(=O)(=O)NC(=O)Nc3nc(OC)cc(OC)n3)n2n1 [propyrisulfuron],Control effect (%) of B applied alone (B),weeds; [7],22.6%
same,Control effect (%) of B applied alone (B),weeds; [8],37.5%
C#CCN(C)c1c(C#N)cnn1-c1nn2c(c1Cl)CCCC2 [pyraclonil],Control effect (%) of B applied alone (B),weeds; [3],22.5%
same,Control effect (%) of B applied alone (B),"weeds; Echinochloa crusgalli, soil (S), B 2 g a.i./mu",43.6%
Cn1nc(C(F)(F)F)c(CS(=O)(=O)C2=NOC(C)(C)C2)c1OC(F)F [pyroxasulfone],pest or weed control at 30 g/ha,"weeds; Lolium multiflorum, soil (S), B 2 g a.i./mu, read-out: Control effect (%) of B applied alone (B)",24.7%
same,pest or weed control at 60 g/ha,"weeds; Lolium multiflorum, soil (S), B 4 g a.i./mu, read-out: Control effect (%) of B applied alone (B)",49.2%
CC(C)N(C)S(=O)(=O)NC(=O)c1cc(-n2c(=O)cc(C(F)(F)F)n(C)c2=O)c(F)cc1Cl [saflufenacil],pest or weed control at 3.75 g/ha,"weeds; Amaranthus retroflexus, soil (S), B 0.25 g a.i./mu, read-out: Control effect (%) of B applied alone (B)",35.2%
same,pest or weed control at 7.5 g/ha,"weeds; Amaranthus retroflexus, soil (S), B 0.5 g a.i./mu, read-out: Control effect (%) of B applied alone (B)",43.8%
CCNc1nc(NCC)nc(SC)n1 [simetryn],pest or weed control at 90 g/ha,weeds; [9],41.5%
same,pest or weed control at 180 g/ha,weeds; [9],58.3%
Cc1nn(-c2cc(NS(C)(=O)=O)c(Cl)cc2Cl)c(=O)n1C(F)F [sulfentrazone],pest or weed control at 60 g/ha,weeds; [4],34.2%
same,pest or weed control at 120 g/ha,weeds; [5],53.6%
CS(=O)(=O)c1ccc(C(=O)C2C(=O)CCCC2=O)c(Cl)c1COCC1CCCO1 (stereo not shown) [tefuryltrione],Control effect (%) of B applied alone (B),weeds; [7],28.4%
same,Control effect (%) of B applied alone (B),weeds; [8],49.7%
CCNc1nc(NC(C)(C)C)nc(SC)n1 [terbutryne],Control effect (%) of B applied alone (B),"weeds; Alopecurus japonicus, soil (S), B 12 g a.i./mu",32.4%
same,Control effect (%) of B applied alone (B),"weeds; Alopecurus japonicus, soil (S), B 24 g a.i./mu",41.9%
CCNc1nc(Cl)nc(NC(C)(C)C)n1 [terbutylazine],Control effect (%) of B applied alone (B),"weeds; Echinochloa crusgalli, soil (S), B 6 g a.i./mu",33.8%
same,Control effect (%) of B applied alone (B),"weeds; Echinochloa crusgalli, soil (S), B 12 g a.i./mu",52.7%
CN1C[C@H](c2cccc(C(F)(F)F)c2)[C@@H](C(=O)Nc2ccccc2F)C1=O [tetflupyrolimet],Control effect (%) of B applied alone (B),"weeds; Echinochloa crusgalli, soil treatment (S), B at 1 g a.i./mu, 21 days",34.7%
same,Control effect (%) of B applied alone (B),weeds; [10],55.6%
COc1nc(OC)nc(C(=O)c2cccc(F)c2N(C)S(=O)(=O)C(F)F)n1 [triafamone],Control effect (%) of B applied alone (B),"weeds; Echinochloa crusgalli, soil (S), B 0.25 g a.i./mu",27.6%
same,Control effect (%) of B applied alone (B),weeds; [2],38.4%
Cc1cc(C)cc(OCC(C)Nc2nc(N)nc(C(C)(C)F)n2)c1 (stereo not shown) [triaziflam],Control effect (%) of B applied alone (B),weeds; [10],29.4%
same,Control effect (%) of B applied alone (B),"weeds; Echinochloa crusgalli, soil treatment (S), B at 4 g a.i./mu, 21 days",40.5%
C#CCN1C(=O)C(F)(F)Oc2cc(F)c(-n3c(=O)n(C)c(=S)n(C)c3=O)cc21 [trifludimoxazin],Control effect (%) of B applied alone (B),"weeds; Lolium multiflorum, soil (S), B 2 g a.i./mu",31.5%
same,Control effect (%) of B applied alone (B),"weeds; Lolium multiflorum, soil (S), B 4 g a.i./mu",42.6%
S-metolachlor,Control effect (%) of B applied alone (B),"weeds; Lolium multiflorum, soil (S), B 12 g a.i./mu",32.1%
same,Control effect (%) of B applied alone (B),"weeds; Lolium multiflorum, soil (S), B 24 g a.i./mu",53.6%
fluridone,Control effect (%) of B applied alone (B),"weeds; Veronica didyma, soil (S), B 1 g a.i./mu",37.2%
same,Control effect (%) of B applied alone (B),"weeds; Veronica didyma, soil (S), B 2 g a.i./mu",50.4%
